Active and inactive are the calls of the source. The rule behind the calls is not given here.

For orientation: IC50 means the concentration needed to halve the response being measured.

The subject of experiment [1] is RAW264.7. In words: Cytotoxicity against mouse RAW264.7 cells assessed as cell viability by MTT assay. Type of experiment: functional, cell-based.
The subject of experiment [2] is RAW264.7. The experiment in a line: Antiinflammatory activity against LPS-stimulated mouse RAW264.7 cells assessed as inhibition of NO production preincubated with compound for 2 hrs followed by LPS stimulation and measured after 24 hrs by Griess reagent based analysis. The class given is functional, cell-based. The following applies: dose 10-40 µM, time 26.0 hrs. (In general: Griess reagent forms a coloured azo dye with nitrite.)

The subject of experiment [3] is RAW264.7. The experiment in a line: Antiinflammatory activity against LPS-stimulated mouse RAW264.7 cells assessed as suppression of NO secretion at 20 uM preincubated with compound for 2 hrs followed by LPS stimulation and measured after 24 hrs by Griess reagent based assay relative to control. Type of experiment: functional. The following applies: time 26 hrs.
Experiment [4] relates to RAW264.7. In words: Antiinflammatory activity against LPS-stimulated mouse RAW264.7 cells assessed as downregulation of LPS-induced iNOS expression preincubated with compound for 2 hrs followed by LPS stimulation and measured after 24 hrs by Western blot analysis. Type of experiment: functional, cell-based. The following applies: dose 10-40 µM, time 26.0 hrs.
Another experiment has as its system A549. The experiment in a line: Anticancer activity against human A549 cells assessed as inhibition of cell growth incubated for 48 hrs by MTT assay. The class given is functional, cell-based. The following applies: A549, 48 h.
For another experiment, the system named is NCI-H1975. In words: Anticancer activity against human NCI-H1975 cells assessed as inhibition of cell growth incubated for 48 hrs by MTT assay. The class given is functional, cell-based. The following applies: NCI-H1975, 48 h. (In general: Tetrazolium assays rely on reduction of a dye to a coloured formazan, in cell work by metabolically active cells.)

The test system of another experiment is MCF7. The experiment in a line: Anticancer activity against human MCF7 cells assessed as inhibition of cell growth incubated for 48 hrs by MTT assay. The class given is functional, cell-based. The following applies: MCF7, 48 h.
The test system of a further experiment is MDA-MB-231. In words: Anticancer activity against human MDA-MB-231 cells assessed as inhibition of cell growth incubated for 48 hrs by MTT assay. The following applies: MDA-MB-231, 48 h. The class given is functional, cell-based.

For `CC1(C)CC[C@]2(C(=O)O)CC[C@]3(C)C(=C2C1)CCC1[C@@]2(C)C[C@@H](O)[C@H](O)C(C)(C)[C@@H]2CC[C@]13C` (stereo partly specified), the result in the experiment on RAW264.7 [1] was inactive.

Consider `C=C1CC[C@@H]2[C@](C)(CO)CCC[C@@]2(C)C1CCC1=CCOC1=O` (stereo partly specified), for which the result in the experiment on RAW264.7 [1] was inactive.

`CC(C)c1cc2c(cc1O)C(=O)C[C@H]1C(C)(C)CCC[C@]21C`: in the experiment on RAW264.7 [1], the outcome was inactive. Moreover, in the experiment with RAW264.7 [2], the inhibition entry was “Dose-Dependent Effect”. The Activity in the experiment with RAW264.7 [3] was 86%; with RAW264.7 [4], “Dose-Dependent Effect”.

Take `CC(C)[C@H]1CC[C@H]2[C@@H](CC[C@H]3C(C)(C)CCC[C@]23C)C1`: the inhibition entry in the experiment on RAW264.7 [2] is “Active”.

For the molecule `CC(C)c1cc2c(cc1O)C(=O)C[C@H]1[C@@](C)(CO)CCC[C@]21C`, in the experiment with RAW264.7 [1], the result was inactive. Moreover, the inhibition entry in the experiment on RAW264.7 [2] was “Dose-Dependent Effect”.

For `CC1(C)CC[C@]2(C(=O)O)CC[C@]3(C)C(=CCC4[C@@]5(C)C[C@@H](O)[C@@H](O)C(C)(C)[C@@H]5CC[C@]43C)C2C1` (stereo partly specified), the result in the experiment on RAW264.7 [1] was inactive.

As for `CC(C)c1cc2c(cc1O)[C@@]1(C)CCC[C@](C)(CO)[C@@H]1CC2`, in the experiment with RAW264.7 [2], the inhibition result is “Dose-Dependent Effect”.

As to `C=C1C(=O)[C@@]23CC[C@@H]4C(C)(C)C(=O)CC[C@@]4(C)[C@@H]2CC[C@@H]1C3`, the result in the experiment on RAW264.7 [1] was inactive. Moreover, the IC50 is more than 10 µM with A549, more than 10 µM with NCI-H1975, more than 10 µM with MCF7 and 8.4 µM in the experiment with MDA-MB-231.

Regarding `CC(=O)[C@@H](C)CC[C@@]1(C(=O)O)C=C2C=CC3[C@@]4(C)C(C(=O)O)=CC(C)(C)[C@@H]4CC[C@@]3(C)[C@]2(C)CC1` (stereo partly specified), in the experiment on RAW264.7 [1], the outcome was inactive.

Consider `CC(C)c1cc2c(cc1O)CC[C@H]1[C@](C)(CO)CCC[C@]21C`, for which the result with RAW264.7 [1] was inactive. For the same molecule, the inhibition result with RAW264.7 [2] was “Dose-Dependent Effect”. Moreover, the Activity entry with RAW264.7 [4] is “Dose-Dependent Effect”.

For `C=C1[C@@H]2CC[C@H]3[C@]4(C)CC[C@@H](O)C(C)(C)[C@H]4C[C@@H](O)[C@]3(C2)[C@@H]1O`, the result in the experiment with RAW264.7 [1] was inactive.

On to `CC(C)C(=O)OC1=C[C@@]2(CO)C(CC[C@]3(C)C2CC=C2C4[C@](C(=O)O)(CC[C@@H](C)[C@@]4(C)O)CC[C@]23C)C(C)(C)C1` (stereo partly specified), for which, in the experiment with RAW264.7 [1], the result was inactive.

For `C[C@@H]1CC[C@]2(C(=O)O)CC[C@]3(C)C(=CCC4[C@@]5(C)C[C@@H](O)OCC(C)(C)C5CC[C@]43C)C2[C@]1(C)O` (stereo partly specified), the outcome with RAW264.7 [1] was inactive.

Turning to `COc1cc(/C=C/C(=O)O[C@H]2[C@H](O)C[C@]3(C)C4CC=C5C6CC(C)(C)CC[C@]6(C(=O)O)CC[C@@]5(C)[C@]4(C)CC[C@H]3C2(C)C)ccc1O` (stereo partly specified), in the experiment on RAW264.7 [1], the outcome was inactive.

Turning to `CC(C)c1cc2c(cc1O)[C@@]1(C)CCCC(C)(C)[C@@H]1CC2=O`, the result in the experiment on RAW264.7 [1] was inactive.

Take `CC1(C)CC[C@]2(C(=O)O)CC[C@]3(C)C(=CC[C@@H]4[C@@]5(C)C[C@@H](O)[C@H](O)C(C)(C)[C@@H]5CC[C@]43C)[C@@H]2C1`: the outcome in the experiment with RAW264.7 [1] was inactive.

In the case of `CC(=O)O[C@H]1C(=O)[C@@]2(C)[C@H]([C@H](OC(=O)c3ccccc3)[C@]3(O)C[C@H](OC(=O)[C@H](O)[C@@H](NC(=O)c4ccccc4)c4ccccc4)C(C)=C1C3(C)C)[C@]1(OC(C)=O)CO[C@@H]1C[C@@H]2O` [PACLITAXEL], the figures for the IC50 with A549, with NCI-H1975 and in the experiment with MDA-MB-231 were 0.018 µM, 0.028 µM and 0.03 µM, respectively.

For the molecule `C=C1C(=O)O[C@H]2C3=CC[C@@H]4C(C)(C)C(=O)CC[C@@]4(C)[C@@H]3CC[C@@H]12`, the result with RAW264.7 [1] was inactive. The IC50 with A549 was more than 10 µM; in the experiment on NCI-H1975, more than 10 µM; in the experiment on MCF7, more than 10 µM; in the experiment with MDA-MB-231 it was 7.3 µM.

As for `CC(C)c1cc2c(cc1O)CC[C@H]1C(C)(C)[C@@H](O)CC[C@]21C`, the result with RAW264.7 [1] was inactive. Also, the inhibition entry in the experiment with RAW264.7 [2] was “Dose-Dependent Effect”. In addition, the Activity in the experiment on RAW264.7 [3] is 91%; with RAW264.7 [4], “Dose-Dependent Effect”.

Consider `CC(C)c1cc2c(cc1O)[C@@]1(C)CC[C@H](O)[C@](C)(C=O)[C@@H]1CC2`, for which the outcome in the experiment on RAW264.7 [1] was inactive. Moreover, the Activity with RAW264.7 [3] is reported as 95%.

On to `CC(C)c1cc2c(cc1O)[C@@]1(C)CC[C@H](O)C(C)(C)[C@@H]1CC2`, for which the result in the experiment on RAW264.7 [1] was inactive.

Take `C=C1[C@@H]2CC[C@H]3[C@]4(C)CCC[C@](C)(CO)[C@H]4C[C@H](O)[C@]3(C2)[C@@H]1O`: the result in the experiment with RAW264.7 [1] was inactive.

`C=C1[C@@H]2CC[C@H]3[C@]4(C)CC[C@@H](O)C(C)(C)[C@H]4C[C@H](OC(C)=O)[C@]3(C2)[C@@H]1O`: the outcome with RAW264.7 [1] was inactive.

Regarding `CC(C)[C@@]1(O)CCC2=C(C1)C(=O)C[C@H]1C(C)(C)CC[C@H](O)[C@]21C`, in the experiment on RAW264.7 [1], the outcome was inactive. For the same molecule, the inhibition entry in the experiment with RAW264.7 [2] was “Dose-Dependent Effect”.

Consider `CC(C)c1cc2c(cc1O)[C@@]1(C)CCC[C@](C)(CO)[C@@H]1C=C2`, for which the outcome in the experiment with RAW264.7 [1] was inactive.

In the case of `CC(C)c1c(O)ccc2c1CC[C@H]1C(C)(C)[C@@H](O)CC[C@]21C`, in the experiment with RAW264.7 [1], the outcome was inactive.

On to `CC(C)c1c(O)ccc2c1CC[C@H]1C(C)(C)C(=O)CC[C@]21C`, for which the result with RAW264.7 [1] was inactive. Also, the inhibition result in the experiment on RAW264.7 [2] is “Dose-Dependent Effect”.

As to `COc1cc2c(cc1C(C)C)CC[C@H]1[C@@](C)(C(=O)O)CCC[C@]21C`, in the experiment with RAW264.7 [1], the result was inactive.

For the molecule `C=C1CC[C@@H]2C(C)(C)[C@H](O)CC[C@@]2(C)C1CCC1=CCOC1=O` (stereo partly specified), the result in the experiment with RAW264.7 [1] was inactive.

Consider `CC(C)c1ccc2c(c1O)CC[C@@H]1[C@@](C)(CO)CCC[C@@]21C`, for which the outcome with RAW264.7 [1] was inactive. In addition, in the experiment on RAW264.7 [2], the inhibition result was “Dose-Dependent Effect”. Also, the Activity was 94% in the experiment on RAW264.7 [3] and “Dose-Dependent Effect” in the experiment with RAW264.7 [4].

For `CC1(C)CC[C@]2(C(=O)O)CC[C@]3(C)C(=CCC4[C@@]5(C)C[C@@H](O)[C@H](OC(=O)/C=C/c6ccc(O)cc6)C(C)(C)[C@@H]5CC[C@]43C)C2C1` (stereo partly specified), in the experiment on RAW264.7 [1], the outcome was inactive.

As for `C[C@@H]1CC[C@]2(C(=O)O)CC[C@]3(C)C(=CC[C@@H]4[C@@]5(C)C(CO)=CC(C)(C)[C@@H]5CC[C@]43C)[C@@H]2[C@]1(C)O` [HYPTASIENIC ACID], the result with RAW264.7 [1] was inactive. In addition, the IC50 was 7.4 µM in the experiment with A549, more than 10 µM in the experiment on NCI-H1975, more than 10 µM with MCF7 and more than 10 µM in the experiment with MDA-MB-231.

Turning to `CC(C)c1c(O)ccc2c1CC[C@H]1[C@@](C)(C(=O)O)CCC[C@]21C`, in the experiment on RAW264.7 [1], the result was inactive. In addition, the inhibition entry in the experiment with RAW264.7 [2] is “Dose-Dependent Effect”.

On to `CC1(C)CC[C@]2(C(=O)O)CC[C@]3(C)C(=C2C1)C=CC1[C@@]2(C)C[C@@H](O)[C@H](O)C(C)(C)[C@@H]2CC[C@]13C` (stereo partly specified), for which the outcome with RAW264.7 [1] was inactive.

As for `C=C1CC[C@@H]2[C@](C)(C(=O)O)CCC[C@@]2(C)C1CCC1=CCOC1=O` (stereo partly specified), the outcome in the experiment with RAW264.7 [1] was inactive.

As to `C=C1C(=O)[C@]23C[C@H]1CC[C@H]2[C@]1(C)CC[C@@H](O)C(C)(C)[C@H]1C[C@@H]3OC(C)=O`, in the experiment on RAW264.7 [1], the outcome was inactive. In addition, the IC50 in the experiment on A549 came to 4.7 µM; in the experiment on NCI-H1975, 6.3 µM; with MCF7, 7.4 µM; in the experiment with MDA-MB-231, 6.6 µM.

For `C[C@@H]1CC[C@]2(C(=O)O)CC[C@]3(C)C(=CCC4[C@@]5(C)C[C@@H](O)[C@H](OC(=O)/C=C/c6ccc(O)cc6)C(C)(C)[C@@H]5CC[C@]43C)C2[C@H]1C` (stereo partly specified), the result with RAW264.7 [1] was inactive.

Source of the values: ChEMBL document CHEMBL5316368, “Di- and Triterpenoids from the Rhizomes of Isodon amethystoides and Their Anti-inflammatory Activities” (J Nat Prod, 2023).
